# Results published in ChEMBL document CHEMBL1201862, “PubChem BioAssay data set” (2004).
#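 Method: 48-hour compound exposure of cells in 96-well plates, five concentrations, linear interpolation of endpoints. At the GI50, growth is halved.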 Activity calls are given as the source filed them. No stated cut-off is given here; in the data, active = GI50 up to about 1.1 µM and inactive = higher. Where a SMILES comes first, the peptide text is derived from it. The star is where a group is joined. Boc = CC(C)(C)OC(=O)*; OSu = O=C1CCC(=O)N1O*
# Experiments:
# Test in all cases: inhibition of tumour cell growth, NCI panel, 48 h
# NCI-H23 = tested on: NCI-H23
# Malme-3M = tested on: Malme-3M
# RXF 393 = tested on: RXF 393
# BT-549 = tested on: BT-549
# NCI-H460 = tested on: NCI-H460
# UO-31 = tested on: UO-31
# NCI-H226 = tested on: NCI-H226
# HCT-15 = tested on: HCT-15
# SK-MEL-5 = tested on: SK-MEL-5
# COLO 205 = tested on: COLO 205
# SK-MEL-28 = tested on: SK-MEL-28
# NCI-H522 = tested on: NCI-H522
# HOP-92 = tested on: HOP-92
# CAKI-1 = tested on: CAKI-1
# OVCAR-5 = tested on: OVCAR-5
# SK-OV-3 = tested on: SK-OV-3
# SW-620 = tested on: SW-620
# DU-145 = tested on: DU-145
# HL-60 = tested on: HL-60
SMILES,GI50 (NCI-H23),GI50 (Malme-3M),GI50 (RXF 393),GI50 (BT-549),GI50 (NCI-H460),GI50 (UO-31),GI50 (NCI-H226),GI50 (HCT-15),GI50 (SK-MEL-5),GI50 (COLO 205),GI50 (SK-MEL-28),GI50 (NCI-H522),GI50 (HOP-92),GI50 (CAKI-1),GI50 (OVCAR-5),GI50 (SK-OV-3),GI50 (SW-620),GI50 (DU-145),GI50 (HL-60)
CCCCCCCCC/C=C1\CC(CO)(COC(=O)C2CCCCC2)OC1=O (stereo not drawn),22.9 µM (inactive),15.2 µM (inactive),20.2 µM (inactive),18.4 µM (inactive),14.5 µM (inactive),20.1 µM (inactive),23.3 µM (inactive),23.2 µM,11.8 µM (inactive),13.6 µM (inactive),15.6 µM (inactive),18.3 µM (inactive),8.17 µM (inactive),22.9 µM (inactive),17.8 µM (inactive),25.8 µM (inactive),18.4 µM (inactive),7.6 µM (inactive),
CC(NC(=O)C(NC(=O)OC(C)(C)C)C(C)C)C(=O)NCC(=O)ON1C(=O)CCC1=O (stereo not drawn) (Boc-Val-Ala-Gly-OSu; configuration not given here),> 100 µM (inactive),> 100 µM (inactive),> 100 µM (inactive),> 100 µM (inactive),> 100 µM (inactive),> 100 µM (inactive),> 100 µM (inactive),> 100 µM,> 100 µM (inactive),> 100 µM (inactive),> 100 µM (inactive),63.4 µM (inactive),22.8 µM (inactive),> 100 µM (inactive),> 100 µM (inactive),> 100 µM (inactive),> 100 µM (inactive),> 100 µM (inactive),
CC(C)(C)OC(=O)N(CCCCNC(=O)c1ccccc1)CCCNC(=O)c1ccccc1,> 100 µM (inactive),,> 100 µM (inactive),> 100 µM (inactive),> 100 µM (inactive),90.6 µM (inactive),> 100 µM (inactive),> 100 µM,> 100 µM (inactive),> 100 µM (inactive),> 100 µM (inactive),> 100 µM (inactive),> 100 µM (inactive),> 100 µM (inactive),> 100 µM (inactive),> 100 µM (inactive),> 100 µM (inactive),> 100 µM (inactive),31.4 µM (inactive)
O=C(/C=C/c1ccc(Cl)c(Cl)c1)CCN1CCN(CCC(=O)/C=C/c2ccc(Cl)c(Cl)c2)CC1,> 10 µM (inactive),,20.2 µM (inactive),24.1 µM (inactive),17.2 µM (inactive),16.8 µM (inactive),19.7 µM (inactive),13.8 µM,19.3 µM (inactive),21.8 µM (inactive),20.4 µM (inactive),8.13 µM (inactive),22.8 µM (inactive),15.6 µM (inactive),19.2 µM (inactive),45.6 µM (inactive),18.2 µM (inactive),23.8 µM (inactive),6.22 µM (inactive)
C=CC(=C)CCC(Br)C(C)(C)Br (stereo not drawn),> 100 µM (inactive),41.2 µM (inactive),> 100 µM (inactive),> 100 µM (inactive),> 100 µM (inactive),> 100 µM (inactive),> 100 µM (inactive),> 100 µM,> 100 µM (inactive),74 µM (inactive),> 100 µM (inactive),15.7 µM (inactive),91.2 µM (inactive),,> 100 µM (inactive),> 100 µM (inactive),32.4 µM (inactive),> 100 µM (inactive),17.1 µM (inactive)
[N-]=[N+]=C1C(=O)c2ccccc2-c2ccccc21,35 µM (inactive),,15.6 µM (inactive),34.4 µM (inactive),32.1 µM (inactive),27.2 µM (inactive),30 µM (inactive),29 µM,15.7 µM (inactive),32.1 µM (inactive),60.8 µM (inactive),24.4 µM (inactive),33.3 µM (inactive),37.4 µM (inactive),34.1 µM (inactive),39.5 µM (inactive),37.4 µM (inactive),30.9 µM (inactive),28.8 µM (inactive)
